Patent EP0207202A1, “Anti-tumor platinum complexes” (Kidani, Yoshinori, priority 1985, dated 1987)
Where two headings read alike, the source gives them in different places.

Test system: Leukemia L-1210
Details: for number of mice cured after 30 days of the administration of the cells of Leukemia L-1210: parenthesized figure; for number of mice cured after 30 days of the administration of the cells of Leukemia L-1210 / T/C x 100: 6 mice per group; for T/C x 100: ratio of mean survival time test/control x 100
Text: Cells of Leukemia L-1210 were intraperitoneally administered to each of groups of mice(6 animals per group) at a rate of 10^5 cells per mouse, and while breeding the mice of control group, each of the compounds of the present invention was intraperitoneally administered to each mouse of the test groups after one, five and nine days of the administration of the cells, the mice of the test groups being bred similarly to those of control group. After observing the mortality of all the mice, the mean survival time period after the administration of the cells was obtained in each group including control group.

[1] = 25 mg/kg i.p. on days 1, 5 and 9
[2] = 25 mg/kg intraperitoneally on days 1, 5 and 9 after 10^5 L-1210 cells i.p.
[3] = 50 mg/kg i.p. on days 1, 5 and 9
[4] = 50 mg/kg intraperitoneally on days 1, 5 and 9 after 10^5 L-1210 cells i.p.
[5] = 100 mg/kg intraperitoneally on days 1, 5 and 9 after 10^5 L-1210 cells i.p.
[6] = 100 mg/kg i.p. on days 1, 5 and 9
[7] = 6.25 mg/kg intraperitoneally on days 1, 5 and 9 after 10^5 L-1210 cells i.p.
[8] = 12.5 mg/kg intraperitoneally on days 1, 5 and 9 after 10^5 L-1210 cells i.p.

| Substance | number of mice cured after 30 days of the administration of the cells of Leukemia L-1210 [1] | T/C x 100 [2] | number of mice cured after 30 days of the administration of the cells of Leukemia L-1210 [3] | T/C x 100 [4] | T/C x 100 [5] | rate of life prolongation (T/C x 100) (Table 2, dose not stated) [%] | number of mice cured after 30 days of the administration of the cells of Leukemia L-1210 [6] | number of mice cured after 30 days of the administration of the cells of Leukemia L-1210 (6.25 mg/kg i.p. on days 1, 5 and 9) | T/C x 100 [7] | T/C x 100 [8] |
| --- | --- | --- | --- | --- | --- | --- | --- | --- | --- | --- |
| Pt(NO3)(tetra-O-acetyl-α-D-glucuronato)(cis-dl-AMCHA) [Compound No. 6] | 1 | 281 | 3 | 402 | 120 | – | – | – | – | – |
| Pt(NO3)(tetra-O-acetyl-β-D-glucuronato)(cis-dl-AMCHA)·3/2H2O [Compound No. 10] | 1 | 204 | – | 242 | 157 | 400 | – | – | – | – |
| Pt(NO3)(tetra-O-acetyl-β-D-glucuronato)(trans-dl-AMCHA)·2H2O [Compound No. 9] | – | – | 1 | 253 | 206 | – | 2 | – | – | – |
| Pt(penta-O-acetyl-D-gluconato)2(trans-dl-AMCHA)·H2O [Compound No. 15] | – | – | – | 267 | 103 | – | – | – | – | – |
| Pt(tetra-O-acetyl-α-D-glucuronato)2(cis-dl-AMCHA) [Compound No. 4] | – | 145 | 1 | 198 | 277 | – | 2 | – | – | – |
| PtCl(D-glucuronato)(cis-dl-AMCHA)·H2O [Compound No. 2] | – | 156 | – | – | – | – | – | 2 | 271 | 189 |
| PtCl(D-glucuronato)(trans-dl-AMCHA)·2H2O [Compound No. 1] | 2 | 293 | – | – | – | – | – | – | 144 | 118 |
